Results: US7414066B2, “Amide compounds and medications containing the same technical field” (Kowa Company Ltd., priority 1999, dated 2008)

Row | SMILES | melting point
1 | CSc1nccc(C)c1NC(=O)CCCCCSc1nc2ccccc2o1 [Compound No. 155, 6-(benzoxazol-2-ylthio)-N-(4-methyl-2-methylthio-3-pyridyl)hexanamide] | 122 to 124 °C
2 | CSc1nc(C)ccc1NC(=O)CSc1nc2ccccc2s1 [Compound No. 461, 2-(benzothiazol-2-ylthio)-N-(6-methyl-2-methylthio-3-pyridyl)acetamide] | 175 to 176 °C
3 | CSc1nc(C)ccc1NC(=O)CSc1nc2ccccc2[nH]1 [Compound No. 471, 2-(benzimidazol-2-ylthio)-N-(6-methyl-2-methylthio-3-pyridyl)acetamide] | 192 to 193 °C (dec.)
4 | CSc1cc(C)nc(SC)c1NC(=O)CCCCSc1nc2ccccc2o1 [Compound No. 784, 5-(benzoxazol-2-ylthio)-N-(2,4-bis(methylthio)-6-methyl-3-pyridyl)pentanamide] | 147 to 150 °C
5 | CSc1cc(C)nc(SC)c1NC(=O)CCCCCCSc1nc2ccccc2o1 [Compound No. 786, 7-(benzoxazol-2-ylthio)-N-[2,4-bis(methylthio)-6-methyl-3-pyridyl]heptanamide] | 137 to 139 °C
6 | CSc1cc(C)nc(SC)c1NC(=O)CCCCCCCSc1nc2ccccc2o1 [Compound No. 787, 8-(benzoxazol-2-ylthio)-N-[2,4-bis(methylthio)-6-methyl-3-pyridyl]octanamide] | 119 to 122 °C
7 | CSc1cc(C)nc(SC)c1NC(=O)CSc1nc2ccccc2s1 [Compound No. 791, 2-(benzothiazol-2-ylthio)-N-[2,4-bis(methylthio)-6-methyl-3-pyridyl)acetamide] | 178 to 179 °C
8 | CSc1cc(C)nc(SC)c1NC(=O)CCCCSc1nc2ccccc2s1 [Compound No. 794, 5-(benzothiazol-2-ylthio)-N-(2,4-bis(methylthio)-6-methyl-3-pyridyl)pentanamide] | 121 to 123 °C

Other lines, results leading:

Row | melting point | SMILES
9 | 104 to 108 °C | CSc1cc(C)nc(SC)c1NC(=O)CCCCCCCSc1nc2ccccc2s1 [Compound No. 797, 8-(benzthiazol-2-ylthio)-N-[2,4-bis(methylthio)-6-methyl-3-pyridyl)octanamide]
10 | 176 to 177 °C | CSc1cc(C)nc(SC)c1NC(=O)CCCCSc1nc2ccccc2[nH]1 [Compound No. 804, 5-(benzimidazol-2-ylthio)-N-[2,4-bis(methylthio)-6-methyl-3-pyridyl]pentanamide]
11 | 189 to 192 °C | CSc1cc(C)nc(SC)c1NC(=O)CCCCCCSc1nc2ccccc2[nH]1 [Compound No. 806, 7-(benzimidazol-2-ylthio)-N-[2,4-bis(methylthio)-6-methyl-3-pyridyl]heptanamide]
12 | 186 to 187 °C | CSc1cc(C)nc(SC)c1NC(=O)CCCCCCCSc1nc2ccccc2[nH]1 [Compound No. 807, 8-(benzimidazol-2-ylthio)-N-[2,4-bis(methylthio)-6-methyl-3-pyridyl]octanamide]
13 | 122 to 123 °C | CCSc1cc(C)nc(SCC)c1NC(=O)CCCCSc1nc2ccccc2o1 [Compound No. 814, 5-(benzoxazol-2-ylthio)-N-[2,4-bis(ethylthio)-6-methyl-3-pyridyl]pentanamide]
14 | 103 to 105 °C | CCSc1cc(C)nc(SCC)c1NC(=O)CCCCCCSc1nc2ccccc2o1 [Compound No. 816, 7-(benzoxazol-2-ylthio)-N-[2,4-bis(ethylthio)-6-methyl-3-pyridyl]heptanamide]
15 | 82 to 84 °C | CCSc1cc(C)nc(SCC)c1NC(=O)CCCCCCCSc1nc2ccccc2o1 [Compound No. 817, 8-(benzoxazol-2-ylthio)-N-[2,4-bis(ethylthio)-6-methyl-3-pyridyl]octanamide]
16 | 119 to 120 °C | CCSc1cc(C)nc(SCC)c1NC(=O)CCCSc1nc2ccccc2s1 [Compound No. 823, 4-(benzothiazol-2-ylthio)-N-[2,4-bis(ethylthio)-6-methyl-3-pyridyl]butanamide]
